GI50 data for 16 compounds are collected here from ChEMBL document CHEMBL4177640, “Potential anti-proliferative agents from 1,4-benzoxazinone-quinazolin-4(3H)-one templates” (2017).

Holding throughout (assay type): functional
The test system of one assay is MDA-MB-231. Nature of the assay: Antiproliferative activity against human MDA-MB-231 cells after 48 hrs by SRB cell proliferation assay. The conditions noted are these: MDA-MB-231, 48 h.
The next assay concerns HeLa. Nature of the assay: Antiproliferative activity against human HeLa cells after 48 hrs by SRB cell proliferation assay.
The test system of another assay is A549. The assay is described as follows: Antiproliferative activity against human A549 cells after 48 hrs by SRB cell proliferation assay. The conditions noted are these: A549, 48 h.

By GI50 is commonly meant the concentration that inhibits growth by half. The low end stands for greater sensitivity of the cells, the high end for lower sensitivity of the cells.

Turning to `COc1ccc(-c2nc3ccccc3c(=O)n2C/C=C/c2ccc(C(=O)CN3C(=O)COc4ccccc43)cc2)c(OC)c1OC`, the GI50 in the assay on MDA-MB-231 worked out at 6760 nM; in the assay with HeLa, 1510 nM; in the assay with A549 it was 320 nM.
For `CCOc1ccc(-c2nc3ccccc3c(=O)n2C/C=C/c2ccc(C(=O)CN3C(=O)COc4ccccc43)cc2)cc1`, in that order: 1130 nM, 1050 nM and 1000 nM.
Consider `COc1ccc(-c2nc3ccccc3c(=O)n2C/C=C/c2ccc(C(=O)CN3C(=O)COc4ccccc43)cc2)c(F)c1`, for which the GI50 was found to be 2400 nM with MDA-MB-231, 370 nM in the assay on HeLa and 670 nM in the assay on A549.
Turning to `O=C(CN1C(=O)COc2ccccc21)c1ccc(/C=C/Cn2c(-c3ccc(F)cc3)nc3ccccc3c2=O)cc1`, the GI50 in the assay with MDA-MB-231 turned out to be 1520 nM; in the assay with HeLa, 1020 nM; in the assay on A549, 810 nM.
As to `O=C(CN1C(=O)COc2ccccc21)c1ccc(/C=C/Cn2c(-c3ccc(Cl)cc3Cl)nc3ccccc3c2=O)cc1`, the GI50 is 2730 nM in the assay on MDA-MB-231, 620 nM in the assay with HeLa and 910 nM in the assay on A549.
On the same counts, the results for `O=C(CN1C(=O)COc2ccccc21)c1ccc(/C=C/Cn2c(-c3ccc([N+](=O)[O-])cc3)nc3ccccc3c2=O)cc1` are 8800 nM, 660 nM and 1000 nM.
As for `O=C(CN1C(=O)COc2ccccc21)c1ccc(/C=C/Cn2c(-c3ccc(C(F)(F)F)cc3)nc3ccccc3c2=O)cc1`, the GI50 is 580 nM in the assay with MDA-MB-231, 1320 nM with HeLa and 930 nM in the assay on A549.
As for `COC(=O)Nc1nc2cc(C(=O)c3cccs3)ccc2[nH]1` [NOCODAZOLE], the GI50 in the assay on MDA-MB-231, in the assay on HeLa and in the assay on A549 was < 10 nM in each case.
In the case of `COc1ccc(-c2nc3ccccc3c(=O)n2C/C=C/c2ccc(C(=O)CN3C(=O)COc4ccccc43)cc2)cc1`, the GI50 with MDA-MB-231 is 3600 nM; in the assay with HeLa, 1030 nM; with A549, 1500 nM.
As to `Cc1nc2ccccc2c(=O)n1C/C=C/c1ccc(C(=O)CN2C(=O)COc3ccccc32)cc1`, the GI50 was found to be 6140 nM in the assay with MDA-MB-231, 880 nM in the assay with HeLa and 910 nM with A549.
As to `Cc1ccc(-c2nc3ccccc3c(=O)n2C/C=C/c2ccc(C(=O)CN3C(=O)COc4ccccc43)cc2)cc1`, the GI50 turned out to be 3400 nM in the assay with MDA-MB-231, 1400 nM in the assay with HeLa and 900 nM in the assay with A549.
For the compound `COc1ccc(-c2nc3ccccc3c(=O)n2C/C=C/c2ccc(C(=O)CN3C(=O)COc4ccccc43)cc2)c(OC)c1`, the GI50 in the assay with MDA-MB-231 is 6030 nM; in the assay with HeLa, 590 nM; in the assay on A549, 1360 nM.
Consider `O=C(CN1C(=O)COc2ccccc21)c1ccc(/C=C/Cn2c(-c3ccc(Cl)cc3)nc3ccccc3c2=O)cc1`, for which the values for the GI50 in the assay with MDA-MB-231, in the assay on HeLa and in the assay with A549 were 2000 nM, 1100 nM and 760 nM, respectively.
On to `COc1ccc(/C=C\c2cc(OC)c(OC)c(OC)c2)cc1O` [COMBRETASTATIN A4], for which the values for the GI50 with MDA-MB-231, with HeLa and in the assay with A549 were 46 nM, 84 nM and 56 nM, respectively.
For `COc1cccc(-c2nc3ccccc3c(=O)n2C/C=C/c2ccc(C(=O)CN3C(=O)COc4ccccc43)cc2)c1`, in that order: 13000 nM, 550 nM and 610 nM.
As to `O=C(CN1C(=O)COc2ccccc21)c1ccc(/C=C/Cn2c(-c3ccccc3)nc3ccccc3c2=O)cc1`, the figures for the GI50 with MDA-MB-231, in the assay with HeLa and with A549 were 13400 nM, 1370 nM and 1000 nM, respectively.
